According to patent US5468772A, “Tripterinin compound and method” (Pharmagenesis, Inc., priority 1993, dated 1995):

Test system: IL-1b
Assay: IL-1b production by PHA stimulated human PBLs (ELISA)
Format: cell-based
Details: 0.7 and 3.13 μg/ml tripterinin, 24 h
Experimental: The effect of tripterinin on the production of the cytokines IL-1b, IL2, IL-6, IFNγ, and TNFα was assessed by measurement of the concentration of these cytokines in PHA stimulated human PBL cultures. Cytokine levels were measured by standard ELISA methods using commercially available kits, as detailed in Example 6. Briefly, assay buffer was added to each of the wells of a microtiter plate containing pre-bound anti-cytokine antibody, followed by addition of standard or sample solution, diluted appropriately for the cytokine concentration measured, followed by a second reporter-labeled antibody specific against the anti-cytokine antibody. […]
Cytokine measurements were carried out using commercially available ELISA assay kits (R&D Systems), in accordance with the supplier's protocols. In brief, 100 μl of the assay buffer supplied was added to each of the wells of a microtiter plate containing pre-bound anti-cytokine antibody, followed by 100 μl of standard or sample solution, diluted appropriately for the concentration range measured. […]
Following two hours incubation, the plates were washed four times with assay buffer, and the second antibody, anti-anti-cytokine-horseradish peroxidase (HRP), was added to each well in a volume of 200 μl. […] Optical density was determined using a Molecular Devices microtiter plate reader.

With `C[C@]12CCC[C@]3(COC1=O)[C@@H]2CC[C@@]12C[C@@H](CC[C@]13O)[C@](C)(O)C2` [tripterinin] as the compound, how does the “effect on IL-1B production” value read?
The value was “did not significantly affect”.
